“Also recorded” adds a separate entry of the source.
Legend:
C57 black 6 mice = assay: In Vivo Hair Generation Test With C57 Black 6 Mice, Experiment A; conditions: 30 μM, topical, every 48 hours (3 applications), after 6 weeks
From the text: Care was taken not to nick or cause abrasion to the underlaying dermal layers. The animals were in anagen growth phase, as indicated by the pinkish color of the skin. […] Hair growth was quantitated by the percent of shaved area covered by new hair growth during this time period.

[1] = cited from earlier work

SMILES	hair regrowth in the shaved area (in words) (C57 black 6 mice)	hair growth on topical, but not oral, application (in words) [1]
CCC(C)(C)C(=O)C(=O)N1CCC[C@H]1C(=O)OCCCc1cccnc1 [GPI 1046, 3-(3-pyridyl)-1-propyl(2s)-1-(3,3-dimethyl-1,2-dioxopentyl)-2-pyrrolidinecarboxylate]	essentially complete hair regrowth and their shaved areas were indistinguishable from unshaven C57 black 6 mice; also recorded: essentially, complete hair regrowth in the shaved area	
C=CC[C@@H]1/C=C(\C)C[C@H](C)C[C@H](OC)[C@H]2O[C@@](O)(C(=O)C(=O)N3CCCC[C@H]3C(=O)O[C@H](/C(C)=C/[C@@H]3CC[C@@H](O)[C@H](OC)C3)[C@H](C)[C@@H](O)CC1=O)[C@H](C)C[C@@H]2OC [FK506]		stimulates hair growth in a dose-dependent manner

From patent US6172087A, “N-oxide of heterocyclic ester, amide, thioester, or ketone hair growth compositions and uses” (GPI NIL Holding, Inc., priority 1998, dated 2001)
